How the values were obtained:
Triticum aestivum = assay: Drought stress greenhouse test, in vivo Part A (spray application, visual rating vs stressed control plants); design: key: 0: kein Effekt; +: leicht positiver Effekt; ++: deutlich positiver Effekt; +++: stark positiver Effekt; details: Trockenstress, 600 l/ha water, mean rating of 3 pots
Excerpt: (§1) Samen von mono- bzw. dikotylen Kulturpflanzen wurden in Plastiktöpfen in sandigem Lehmboden ausgesät, mit Erde oder Sand abgedeckt und im Gewächshaus unter guten Wachstumsbedingungen angezogen. Die Behandlung der Versuchspflanzen erfolgte im frühen Laubblattstadium (BBCH10 - BBCH13). Zur Gewährleistung einer uniformen Wasserversorgung vor Stressbeginn wurden die bepflanzten Töpfe vor Substanzapplikation durch Anstaubewässerung mit Wasser versorgt.
(§2) Die in Form von benetzbaren Pulvern (WP) formulierten erfindungsgemässen Verbindungen wurden als wässrige Suspension mit einer Wasseraufwandmenge von umgerechnet 600 I/ha unter Zusatz von 0,2% Netzmittel (z.B. Agrotin) auf die grünen Pflanzenteile gesprüht. Unmittelbar nach Substanzapplikation erfolgte die Stressbehandlung der Pflanzen.
(§3) Der Trockenstress wurde durch langsames Abtrocknen unter folgenden Bedingungen induziert: • "Tag": 14 Stunden beleuchtet bei ~ 26-30°C • "Nacht": 10 Stunden ohne Beleuchtung bei ~ 18-20°C.
(§4) Die Dauer der jeweiligen Stressphasen richtete sich hauptsächlich nach dem Zustand der gestressten Kontrollpflanzen. Sie wurde (durch Wiederbewässerung und Transfer in ein Gewächshaus mit guten Wachstumsbedingungen) beendet, sobald irreversible Schäden an den gestressten Kontrollpflanzen zu beobachten waren.
(§5) Nach Beendigung der Stressphase folgte eine ca. 4-7 tägige Erholungsphase, während der die Pflanzen abermals unter guten Wachstumsbedingungen im Gewächshaus gehalten wurden. Die Dauer der Erholungsphase richtete sich hauptsächlich danach, wann die Versuchspflanzen einen Zustand erreicht hatten, der eine visuelle Bonitur potenzieller Effekte ermöglichte, und war daher variabel.
(§6) Wenn dieser Zeitpunkt erreicht war, wurde das Erscheinungsbild der mit Testsubstanzen behandelten Pflanzen im Vergleich zu den gestressten Kontrollpflanzen nach folgenden Kategorien erfasst:
(§7) Um auszuschliessen, dass die beobachteten Effekte von der ggf. fungiziden oder insektiziden Wirkung der Testverbindungen beeinflusst wurden, wurde zudem darauf geachtet, dass die Versuche ohne Pilzinfektion oder Insektenbefall abliefen.
(§8) In jedem Versuch wurden pro Kultur und Dosierung Pflanzen in 3 Töpfen behandelt und separat ausgewertet. Die in den unten stehenden Tabellen A-1 bis A-3 angegebenen Werte für die erhaltenen Effekte stellen Mittelwerte aus den erhaltenen Bonituren dar.
(§9) Wirkungen ausgewählter Verbindungen der allgemeinen Formel (I) unter Trockenstress: Tabelle A-1

Zea mays = assay: as above; design: key: 0: kein Effekt; +: leicht positiver Effekt; ++: deutlich positiver Effekt; +++: stark positiver Effekt; details: Trockenstress, 600 l/ha water, mean rating of 3 pots
Excerpt: as §1, §2, §3, §4, §5, §6, §7, §8, §9

Brassica napus = assay: as above; design: key: 0: kein Effekt; +: leicht positiver Effekt; ++: deutlich positiver Effekt; +++: stark positiver Effekt; details: Trockenstress, Dosierung 250 g/ha, 600 l/ha water, mean rating of 3 pots
Excerpt: as §1, §2, §3, §4, §5, §6, §7, §8, §9

[1] = biological target: T1, Phosphatase ABI1 über den Co-Regulator RCAR11/PYR1 (Arabidopsis thaliana, UniProt O49686+P49597); assay: In vitro ABI1 phosphatase inhibition assay via co-regulator RCAR11/PYR1 (MUP dephosphorylation, fluorescence); assay type: biochemical; details: Konzentration 5mM of the substance in DMSO and water; 20 min at 35 °C; MUP substrate, emission 460 nm
T1 sequence (O49686 1-191): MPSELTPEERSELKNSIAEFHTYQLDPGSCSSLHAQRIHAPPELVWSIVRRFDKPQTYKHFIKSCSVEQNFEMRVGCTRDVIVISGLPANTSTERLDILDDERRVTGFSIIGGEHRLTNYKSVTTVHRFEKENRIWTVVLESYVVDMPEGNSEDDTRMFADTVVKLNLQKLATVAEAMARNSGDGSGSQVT
T1 sequence (P49597 1-434): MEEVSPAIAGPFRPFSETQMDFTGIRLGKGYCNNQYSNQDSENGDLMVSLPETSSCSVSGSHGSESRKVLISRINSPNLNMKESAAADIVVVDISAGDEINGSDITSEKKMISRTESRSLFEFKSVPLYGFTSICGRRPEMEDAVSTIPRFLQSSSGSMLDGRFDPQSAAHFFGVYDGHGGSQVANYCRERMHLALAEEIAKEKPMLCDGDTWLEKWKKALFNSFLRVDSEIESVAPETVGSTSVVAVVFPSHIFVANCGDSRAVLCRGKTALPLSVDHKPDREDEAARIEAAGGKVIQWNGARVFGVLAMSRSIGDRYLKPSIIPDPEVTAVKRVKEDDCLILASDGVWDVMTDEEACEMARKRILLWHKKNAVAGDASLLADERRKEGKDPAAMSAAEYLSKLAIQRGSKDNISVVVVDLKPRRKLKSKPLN
Excerpt: Effekte des Phytohormons Abscisinsäure (ABA) auf das Verhalten von Pflanzen unter abiotischem Stress und der Wirkmechanismus von ABA sind in der Literatur beschrieben (vgl. Abrams et al, WO97/23441, Park et al. Science, 2009, 324, 1068; Grill et al. Science, 2009, 324, 1064; Tanokura et al. Biophysics, 2011, 7, 123; Schroeder et al. Plant J. 2010, 61, 290). Daher kann man mit Hilfe eines geeigneten in vitro-Testsystems eine Korrelation zwischen der Wirkung von ABA und der Stressantwort einer Pflanze unter abiotischem Stress ableiten. Unter Wassermangel (Trockenstress) bilden Pflanzen das Phytohormon Abscisinsäure (ABA). Dieses bindet mit einem Co-Regulator (Regulatory Component of ABA-Receptor = RCAR nach Grill et al. Science, 2009, 324, 1064 oder PYR/PYL nach Cutler et al. Science, 2009, 324, 1068) an eine Phosphatase (z.B. ABI1, eine Typ 2C Proteinphosphatase, auch als PP2C abgekürzt) und hemmt diese in ihrer Aktivität. In der Folge wird eine "downstream" Kinase (z.B. SnRK2) nicht mehr dephosphoryliert. Diese somit aktive Kinase schaltet über Phosphorylierung von Transkriptionsfaktoren (z.B. AREB/ABF, vgl. Yoshida et al Plant J. 2010, 61, 672) ein genetisches Schutzprogramm zur Erhöhung der Trockenstresstoleranz an.
In dem im Folgenden beschriebenen Assay wird die Hemmung der Phosphatase ABI1 über den Co-Regulator RCAR11/PYR1 aus Arabidopsis thaliana genutzt. […]

Fc1ccc(CSc2nnc(-c3ccc(Cl)cc3)n2C2CC2)cc1 [D6-13, 3-(4-Chlorphenyl)-4-cyclopropyl-5-[(4-fluorbenzyl)-sulfanyl]-4H-1,2,4-triazol]
Effekt (TRZAS) (Triticum aestivum; Dosierung 25 g/ha): ++
Effekt (ZEAMX) (Zea mays; Dosierung 25 g/ha): +++

CCn1c(SCc2ccc(C#N)cc2)nnc1-c1ccc(Cl)cc1 [B6-63, 3-(4-Chlorphenyl)-4-ethyl-5-[(4-cyanobenzyl)-sulfanyl]-4H-1,2,4-triazol]
Effekt (BRSNS) (Brassica napus): +++
Effekt (ZEAMX) (Zea mays; Dosierung 250 g/ha): +++

O=C(CSc1nnc(-c2ccc(Cl)cc2)n1C1CC1)Nc1ccccc1Cl [D6-726]
Effekt (TRZAS) (Triticum aestivum; Dosierung 250 g/ha): ++
Effekt (ZEAMX) (Zea mays; Dosierung 250 g/ha): +++

CC(C=CC1(O)C(C)=CC(=O)CC1(C)C)=CC(=O)O (stereo not shown) [Abscisinsäure]
ABI1 Inhibition [1]: ++++ (Inhibition ≥ 90 %)

Source: patent publication EP3210469A1, “USE OF SUBSTITUTED THIO-1,2,4-TRIAZOLES FOR INCREASING STRESS TOLERANCE IN PLANTS” (Bayer CropScience AG, priority 2016, dated 2017)
